Data as given in patent publication US4691018A, “Pyridine derivatives and their use as anti-allergic agents” (Chugai Seiyaku Kabushiki Kaisha, priority 1985, dated 1987).

Key:
[1] = system: passive cutaneous anaphylaxis (PCA); test: Inhibitory effect on passive cutaneous anaphylaxis (PCA), oral; format: in vivo, rat (SD/JCL strain); settings: rat
Description: Rat antiserum to egg albumin was prepared by the method of I. Mota, "Immunology" 7, 681-699 (1964), and 400 folds diluted. The diluted antiserum (0.1 ml) was injected into dorsal skin of rats (SD/JCL strain, male, 9-week-old) to subject them to passive immunization.
Forty-eight to seventy-two hours later, each rat was orally given a compound of this invention suspended in a 1% gum arabic aqueous solution. Five minutes after the administration, each rat was intravenously injected at its tail with 1 ml of a mixture containing equal volumes of a 0.5% solution of egg albumin in saline and 0.5% solution of Evans Blue in saline. Thirty minutes later, each rat was beheaded and the extravasated dye was quantitatively measured by the method of Katayama et al., "Microbiol. Immunol" 22, 89-101 (1978).
The percent inhibition was calculated by comparing the amount of Evans Blue leaking in the test groups with that in the control group in which a gum arabic aqueous solution containing no test compound was administered to the test animal.
In Table 1, inhibition efficiencies of 30 to 50%, 51-70%, 71-90% and 91% or more are represented by the ratings +, ++, +++ and ++++, respectively. The numbers given to the test compounds correspond to the Example Nos.

IgE antibody = test: Inhibitory effect on production of IgE antibody, oral, X-ray exposed mice immunized with DNP-KLH; format: in vivo, mouse (SJL/J strain); settings: mouse
Description: Inhibitory effect on production of IgE antibody SJL/J strain mice (8-week-old) were exposed to X-rays of 400 R, and concurrently injected intraperitoneally a mixture of 1 μg of Keyhole Limpet Hemocyanin (KLH) with 4 mg of an aluminum hydroxide gel. One week later, the mice were intraperitoneally administered with a mixture of 1 μg of dinitrophenyl group-binding KLH (DNP-KLH) with 4 mg of an aluminum hydroxide gel. From the next day of the immunization with DNP-KLH, each of the mice was forced to be orally administered by using gastric catherter with a test compound suspended in a 1% gum arabic aqueous solution. The mice in a control group were administered with only the gum arabic solution.
The serum was sampled from each of the mice treated above, and the amount of IgE therein was measured by the "Rat 48-hour PCA test" similarly as described in Experiment 1. The amount of IgE was expressed in terms of the maximum dilution of the serum by which a cutaneous reaction appeared in an area with a diameter of 5 mm or more to be observed.
The percent inhibition was indicated as the ratio of the amount of IgE of the test group to that of the control group.
In Table 2, inhibition efficiencies of 25-50%, 50-75% and 75% or more are represented by ratings ++, +++ and ++++, respectively. The numbers given to the test compounds correspond to the Example Nos.

| SMILES | Percent Inhibition ([1]; dose 10 mg/kg) | Percent Inhibition (IgE antibody; dose 5 mg/kg) | other results |
| --- | --- | --- | --- |
| CNC(=O)c1cc(C(=O)OCCOC)cc(C(=O)NC)n1 [Compound 7] | ++ (51-70%) | – | – |
| CNC(=O)c1cc(C(=O)OC(C)C)cc(C(=O)NC)n1 [Compound 5] | – | +++ (50-75%) | – |
| CCOC(=O)c1cc(C(=O)NC)nc(C(=O)NC)c1NC [Compound 11, ethyl 3-methylamino-2,6-bis(N-methylcarbamoyl)pyridine-4-carboxylate] | ++++ (91% or more) | ++++ (75% or more) | – |
| CNC(=O)c1cc(C(=O)OCCO)cc(C(=O)NC)n1 [Compound 8, 2-hydroxyethyl 2,6-bis(N-methylcarbamoyl)pyridine-4-carboxylate] | ++ (51-70%) | ++ (25-50%) | – |
| CCCOC(=O)c1cc(C(=O)NC)nc(C(=O)NC)c1 [Compound 4] | ++ (51-70%) | – | – |
| CCOC(=O)c1cc(C(=O)NC)nc(C(=O)NC)c1N [Compound 10, ethyl 3-amino-2,6-bis(N-methylcarbamoyl)pyridine-4-carboxylate] | +++ (71-90%) | – | Percent Inhibition (IgE antibody; dose 10 mg/kg): ++++ (75% or more) |
| CCOC(=O)c1cc(C(=O)NC)nc(C(=O)NC)c1 [Compound 1, ethyl 2,6-bis(N-methylcarbamoyl)pyridine-4-carboxylate] | – | ++++ (75% or more) | Percent Inhibition ([1]; dose 5 mg/kg): ++++ (91% or more) |
| CNC(=O)c1cc(C(=O)O)cc(C(=O)NC)n1 [Compound 2, 2,6-bis(N-methylcarbamoyl)pyridine-4-carboxylic acid] | – | – | Percent Inhibition ([1]; dose 50 mg/kg): + (30 to 50%); Percent Inhibition (IgE antibody; dose 50 mg/kg): ++++ (75% or more) |
